Consider 3 compounds from PMC10648927, “Examining the activity of cefepime-taniborbactam against Burkholderia cepacia complex and Burkholderia gladioli isolated from cystic fibrosis patients in the United States” (Antimicrobial Agents and Chemotherapy, 2023).

Values after ≈ are worked out from the molar mass of the structure shown.

What all share (set-up): agar dilution MIC, growth inhibition of clinical Burkholderia isolates
Assay [1] relates to T1, B. cenocepacia AU14093.
T1 construct: AU14093
The experiment in a line: microbe, parasite or virus in culture. To be noted: Burkholderia cenocepacia, AU14093. The essentials:
(§1)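 MICs by agar dilution against Bcc and B. gladioli clinical isolates, interpreted with CLSI breakpoints where available; K. pneumoniae ATCC 700603 (SHV-18) and ATCC BAA-1705 (KPC) served as quality controls.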

Assay [2] concerns T2, B. cenocepacia AU141094.
T2 construct: AU141094
The experiment in a line: microbe, parasite or virus in culture. To be noted: Burkholderia cenocepacia, AU141094. The essentials: as §1

In assay [3] the test system is T3, B. cenocepacia AU29265.
T3 construct: AU29265
The assay is described as follows: microbe, parasite or virus in culture. To be noted: Burkholderia cenocepacia, AU29265. The gist of the method: as §1

For assay [4], the system named is T4, B. cepacia AU29493.
T4 construct: AU29493
The experiment in a line: microbe, parasite or virus in culture. Conditions: Burkholderia cepacia, AU29493. The gist of the method: as §1

Assay [5] has as its system T5, B. gladioli AU1009.
T5 construct: AU1009
The assay is described as follows: organism not typed. The gist of the method: as §1

Assay [6] relates to T6, B. gladioli AU26456.
T6 construct: AU26456
The experiment in a line: organism not typed. The essentials: as §1

Assay [7] concerns T7, B. multivorans AU14786.
T7 construct: AU14786
The experiment in a line: microbe, parasite or virus in culture. Conditions: Burkholderia multivorans, AU14786. The gist of the method:
as §1

For assay [8], the system named is T8, B. multivorans AU17534.
T8 construct: AU17534
The assay is described as follows: microbe, parasite or virus in culture. To be noted: Burkholderia multivorans, AU17534. The gist of the method: as §1

Assay [9] deals with T9, B. multivorans AU17545.
T9 construct: AU17545
The experiment in a line: microbe, parasite or virus in culture. Conditions: Burkholderia multivorans, AU17545. The gist of the method:
as §1

Assay [10] deals with T10, B. multivorans AU21015.
T10 construct: AU21015
The assay is described as follows: microbe, parasite or virus in culture. To be noted: Burkholderia multivorans, AU21015. The essentials: as §1

The subject of assay [11] is T11, B. multivorans AU23365.
T11 construct: AU23365
The assay is described as follows: microbe, parasite or virus in culture. Conditions: Burkholderia multivorans, AU23365. The essentials:
as §1

Assay [12] concerns T12, B. multivorans AU27706.
T12 construct: AU27706
The experiment in a line: microbe, parasite or virus in culture. Conditions: Burkholderia multivorans, AU27706. The gist of the method: as §1

Assay [13] relates to T13, B. multivorans AU28069.
T13 construct: AU28069
The assay is described as follows: microbe, parasite or virus in culture. To be noted: Burkholderia multivorans, AU28069. The gist of the method:
as §1

For assay [14], the system named is T14, B. multivorans AU30438.
T14 construct: AU30438
The experiment in a line: microbe, parasite or virus in culture. Conditions: Burkholderia multivorans, AU30438. The essentials:
as §1

The subject of assay [15] is T15, B. stabilis AU10235.
T15 construct: AU10235
The assay is described as follows: microbe, parasite or virus in culture. To be noted: Burkholderia stabilis, AU10235. The essentials:
as §1

In assay [16] the test system is T16, Burkholderia cepacia complex Bcc Indeterminate AU12560.
T16 construct: AU12560
The assay is described as follows: microbe, parasite or virus in culture. To be noted: Burkholderia cepacia. The gist of the method:
as §1

In assay [17] the test system is T17, Burkholderia cepacia complex Bcc Indeterminate AU19076.
T17 construct: AU19076
The experiment in a line: microbe, parasite or virus in culture. To be noted: Burkholderia cepacia. The gist of the method:
as §1

As to `CO/N=C(\C(=O)N[C@@H]1C(=O)N2C(C(=O)[O-])=C(C[N+]3(C)CCCC3)CS[C@H]12)c1csc(N)n1` [cefepime], the MIC in assay [1] was more than 32 µg/mL; in assay [2] it was more than 32 µg/mL; in assay [3], 16 µg/mL (≈ 33.3 µM); in [4] it was more than 32 µg/mL; in assay [5], 16 µg/mL (≈ 33.3 µM); in [6] it was 4 µg/mL (≈ 8.32 µM). The MIC in [7] was more than 32 µg/mL; in assay [8], more than 32 µg/mL; in assay [9], 16 µg/mL (≈ 33.3 µM); in assay [10], more than 32 µg/mL; in [11], more than 32 µg/mL; in assay [12], 1 µg/mL (≈ 2.08 µM). The MIC is 8 µg/mL (≈ 16.6 µM) in assay [13]; 16 µg/mL (≈ 33.3 µM) in assay [14]; more than 32 µg/mL in assay [15]; 32 µg/mL (≈ 66.6 µM) in assay [16]; 16 µg/mL (≈ 33.3 µM) in [17].

Take `C[C@H]1COc2c(N3CCN(C)CC3)c(F)cc3c(=O)c(C(=O)O)cn1c23` [levofloxacin]: the MIC is more than 32 µg/mL in assay [1]; more than 32 µg/mL in [2]; 2 µg/mL (≈ 5.53 µM) in [3]; 8 µg/mL (≈ 22.1 µM) in assay [4]; 0.5 µg/mL (≈ 1.38 µM) in assay [5]; 0.5 µg/mL (≈ 1.38 µM) in [6]. Besides, the MIC in [7] is more than 32 µg/mL; in assay [9], 8 µg/mL (≈ 22.1 µM); in assay [10], 32 µg/mL (≈ 88.6 µM); in assay [11], 8 µg/mL (≈ 22.1 µM); in assay [12], 1 µg/mL (≈ 2.77 µM); in [13], 4 µg/mL (≈ 11.1 µM). The MIC in [14] worked out at 4 µg/mL (≈ 11.1 µM); in [15], 16 µg/mL (≈ 44.3 µM); in [16], 8 µg/mL (≈ 22.1 µM); in assay [17], 4 µg/mL (≈ 11.1 µM).

In the case of `C[C@@H](O)[C@H]1C(=O)N2C(C(=O)O)=C(S[C@@H]3CN[C@H](C(=O)N(C)C)C3)[C@H](C)[C@H]12` [meropenem], the MIC in [1] was found to be 8 µg/mL (≈ 20.9 µM); in assay [2], 16 µg/mL (≈ 41.7 µM); in assay [3], 2 µg/mL (≈ 5.22 µM); in [4], 8 µg/mL (≈ 20.9 µM); in assay [5], 1 µg/mL (≈ 2.61 µM); in [6] it was 1 µg/mL (≈ 2.61 µM). Besides, the MIC in assay [7] is 16 µg/mL (≈ 41.7 µM); in [8], 16 µg/mL (≈ 41.7 µM); in assay [9], 2 µg/mL (≈ 5.22 µM); in assay [10], 16 µg/mL (≈ 41.7 µM); in assay [11], 8 µg/mL (≈ 20.9 µM); in [12], 0.5 µg/mL (≈ 1.3 µM). Also, the MIC in [13] is 4 µg/mL (≈ 10.4 µM); in [14] it was 4 µg/mL (≈ 10.4 µM); in [15], 16 µg/mL (≈ 41.7 µM); in [16] it was 4 µg/mL (≈ 10.4 µM); in [17], 4 µg/mL (≈ 10.4 µM).
